In patent US6403631B1, “Method and compositions for enhancing pregnancy success in an animal” (Equitech Laboratories, Inc., priority 1995, dated 2002):

Assays:
[1] = test system: conceptus membrane segments; assay: In vitro estradiol production by day 16 conceptus membrane segments (Example 7); format: cell-based, mares
Method: Treatment with melatonin at estrus results in greater in vitro estradiol biosynthetic capability of day 16 conceptus membrane segments given androgen precursors. […] The extra-embryonic membranes were dissected into 4×4 mm^2 segments and cultured in the presence or absence of supplemental testosterone. Conceptus membrane fragments were cultured for 24 hours and the culture medium analyzed for estradiol.
Results and conclusions. Following completion of culture, conceptus membrane segments were frozen and assayed for DNA content. All estradiol concentrations measured in culture media were then adjusted for the DNA content of the appropriate conceptus membrane segment.

[2] = test system: accessory corpora lutea; assay: Multiple melatonin administrations: accessory corpora lutea progesterone (Example 6); format: in vivo, mares; details: treatment just prior to formation of accessory corpora lutea (day 35-45 of pregnancy)
Description: Mares are unique in that they develop and ovulate a new cohort of follicles around day 35-45 of pregnancy. […] Mares which received melatonin treatment at estrus also received daily melatonin treatment from day +35 to day +45 of pregnancy.

[3] = test system: hysterectomized mares; assay: Melatonin at estrus, morning v. afternoon, in hysterectomized mares: plasma progesterone (Example 5); format: in vivo
Method: Because hysterectomized mares are unable to generate a luteolytic secretion of prostaglandin F2α (PGF), luteal function and progesterone production continue longer than in uterine-intact mares.
The experiment was repeated in full using the same design with the exception that melatonin or control injections were administered in the afternoon rather than the morning. Blood samples were collected daily from day of treatment for 30 days post-ovulation.

[4] = test system: corpora lutea segments from cycling mares; assay: In vitro progesterone production by corpus luteum segments (Example 8); format: cell-based; details: 1, 10 or 100 nM melatonin; presence or absence of 100 ng hCG
Method: Corpus luteum tissue was collected surgically and was dissected into segments approximately 2×2 mm^2. Segments were incubated in the following manner: [table] At completion of culture, segments were frozen until assayed for DNA content. All media progesterone concentrations were subsequently adjusted for DNA content of the appropriate segment.

[5] = test system: ewes; assay: Bolus melatonin at estrus in ewes: plasma progesterone (Example 12); format: in vivo; details: 400 μg i.v., 2 to 3 doses at estrus; Day 5 to Day 15 post-estrus; vs saline
Method: A. Effect of bolus administration of melatonin on progesterone levels. The effect of bolus melatonin administration during estrus on plasma progesterone was determined. The duration of the estrous cycle was also measured. Estrous cycles of ten ewes were monitored by daily behavioral monitoring with a vasectomized ram. […] Blood samples were collected daily for an entire estrous cycle. Melatonin-treated ewes (n=5) were administered 400 μg melatonin i.v. in the early morning (07:30 to 08:30hr) and late afternoon (16:30 to 17:30hr). Five ewes were treated similarly, but were administered saline as control at the same times. Estrus duration was approximately 24 to 36 hr, thus ewes were administered 2 to 3 doses of melatonin to assure treatment during estrus. Progesterone levels were higher from Day 5 to Day 15 post-estrus in melatonin-treated ewes compared with saline-treated ewes. The increased progesterone concentrations following administration of melatonin, as compared to a saline control, is shown in FIG. 5B.

[6] = test system: mares; assay: Melatonin at mid-diestrus: plasma progesterone (Example 4); format: in vivo; details: 100 μg on day 8 post-ovulation
Method: Treatments were given at 10:59:45. Daily blood sampling was performed from estrus preceding treatment to 7 days after the next subsequent ovulation. Blood samples were collected every 30 minutes for 10 hours each day of sampling.

[7] = test system: ewes; details: orally administered to ewes; cited from earlier work
[8] = test system: corpus luteum; assay: Corpus luteum biopsy morphology after melatonin at estrus (Example 9); format: in vivo, mares; details: light and electron microscopy
Description: Following collection of conceptuses as described in Examples 7 and 8, mares were taken to surgery and the corpus luteum biopsied. Biopsies were taken from each mare, control and melatonin-treated, for both light and electron microscopy.

[9] = test system: mares; assay: Bolus melatonin at estrus: conception, plasma progesterone and conceptus diameter (Example 1B); format: in vivo; details: 100 μg at estrus
Method: B. Effect on conception of bolus administration of melatonin during estrus. […] Pregnancy was monitored by ultrasonography after day 10 post-ovulation. Blood samples were collected daily from the day of treatment to day 16 post-ovulation, when conceptuses were removed. Conceptus diameter was measured daily beginning day 10 post-ovulation with ultrasound.

[10] = test system: pony mares; assay: Bolus melatonin at estrus: plasma E2, P4, LH and cycle length (Example 1A); format: in vivo
Method: A. Effect of bolus administration of melatonin on estradiol, progesterone, and luteinizing hormone levels. The effect of bolus melatonin administration during estrus on plasma estradiol (E2), progesterone (P4), and luteinizing hormone (LH) was determined. The interval from treatment to ovulation (OV1) and duration of the subsequent estrous cycle, ending at OV2, were also measured. Estrous cycles of eight pony mares were synchronized. Ovarian follicular activity was monitored daily, and sexual behavior was monitored with a stallion. Blood samples were collected daily. Upon detection of behavioral estrus and a 30 mm diameter follicle, mares were assigned to either a control group or melatonin group. Blood samples were collected for 8 hours (09:00 to 17:00) at 30 minute intervals. Melatonin-group mares were given an injection of 100 μg melatonin in 1 ml of sterile saline into the jugular vein, while control-group mares received 1 ml sterile saline.

[11] = test system: marmoset corpus luteum; details: in vivo perfusion, marmosets; cited from earlier work
[12] = test system: cows; assay: Melatonin in cows: plasma progesterone (FIG. 5A); format: in vivo; details: vs saline control, initial results
Description: FIGS. 5A and 5B show the effect on plasma progesterone (P4) concentration (ng/ml), compared to a saline control, following administration of melatonin to cows and ewes in accordance with the subject invention.

[13] = test system: sheep; details: subcutaneous, multiple daily administrations; cited from earlier work
[14] = test system: cyclic pony mares; assay: Melatonin at proestrus or estrus: plasma hormones in the subsequent cycle (Example 3); format: in vivo
Method: Blood samples were collected every 30 minutes and were collected daily through the next subsequent estrus and ovulation.

[15] = test system: cyclic pony mares; assay: Melatonin at proestrus: plasma melatonin (RIA), E2, P4, LH (Example 2); details: 100 μg at proestrus
Method: Treatments were administered at 09:59:45 at proestrus only. Test animals were divided into two groups: control (1.0 ml 0.9% saline, n=3), and melatonin (100 μg melatonin in 1.0 ml 0.9% saline, n=3). Ovarian follicular activity was monitored daily by rectal palpation and/or ultrasonography. Blood samples were collected every 10 minutes for a period of 8 hours at proestrus, estrus, and diestrus. Plasma melatonin concentrations were measured by radioimmunoassay (RIA) to determine the effect of control and melatonin treatments administered at proestrus.

[16] = test system: human and bovine granulosa cells; details: in vitro; cited from earlier work
[17] = 100 μg i.v. at estrus, vs control

## C[C@]12CC[C@H]3[C@@H](CCC4=CC(=O)CC[C@@]43C)[C@@H]1CC[C@@H]2O [Testosterone, testosterone]
[1]; testosterone supplied to the culture
  estradiol production by conceptuses in vitro: significantly increased

## COc1ccc2[nH]cc(CCNC(C)=O)c2c1 [melatonin, N-acetyl-5-methoxytryptamine]
[2]
  progesterone production by accessory corpora lutea: enhanced progesterone production
[1]; conceptuses from mares treated at estrus, no supplemental testosterone, 24 hours culture
  estradiol concentrations in culture media, adjusted for DNA content: did not differ
[1]; conceptuses from mares treated at estrus, with testosterone, p=0.01 vs all other groups
  estradiol production in vitro, adjusted for DNA content: greater
[3]; 100 μg at estrus, morning or afternoon, p<0.03 vs control
  plasma progesterone concentrations: higher
[3]; at approximate time of luteal regression (day 14 to 16)
  plasma progesterone, melatonin-treated vs saline-treated mares: no longer detectable differences
[4]
  media progesterone concentrations, adjusted for DNA content: no effect
[5]
  progesterone levels: higher
[6]
  plasma progesterone concentrations during 10-hour sampling period: did not alter
  plasma progesterone concentrations throughout rest of luteal phase: Nor were plasma progesterone concentrations different
[6]; until day 7 post-ovulation, p=0.034
  plasma progesterone concentrations following next subsequent ovulation: higher
[7]
  plasma progesterone concentrations: increased
[8]
  corpus luteum morphology: greater percent of cells with pleomorphic nuclei
[9]; bred mares, to day 16 post-ovulation, p=0.026 vs control
  plasma progesterone concentrations: increased
[9]; day 13 to 15 post-ovulation, vs control
  conceptus diameter: larger
[9]; days 10 to 13 post-ovulation, ultrasound
  early embryonic growth rate: did not appear to differ
[10]; 100 μg i.v. at estrus, control pattern cubic, increases at OV1 and OV2
  pattern of E2 over the cycle: quadratic, with increases noted only at OV2
[10]; 100 μg i.v. at estrus, p<0.007
  plasma P4 levels vs control: higher
[10]; [17]
  duration of subsequent estrous cycle (OV1 to OV2): did not differ between groups
  interval from treatment to OV1: did not differ between groups
  plasma LH levels: not different between groups
[10]; 100 μg melatonin i.v. at estrus, 8 h sampling, p<0.001
  plasma E2 secretion following administration: declined
[11]
  progesterone production by corpus luteum: stimulated
[12]
  plasma progesterone (P4) concentrations: no effect
[13]
  progesterone concentrations: increased
[14]; 100 μg at estrus
  plasma estradiol concentrations at time of treatment: acute decline
[14]; 100 μg at proestrus or estrus, p=0.001 vs control
  estradiol concentrations during subsequent estrous cycle: different
[14]; 100 μg at proestrus or estrus, p=0.007 vs control
  plasma progesterone response, ovulation through next ovulation: higher
[14]; 100 μg at proestrus or estrus, vs controls
  plasma LH concentrations: did not differ
[14]; 100 μg melatonin
  treatment at proestrus compared with treatment at estrus: not different
[14]; ovulation to day 7 and backwards from next ovulation, p=0.01 vs control
  plasma progesterone, standardized analysis: higher
[15]; 8-hour proestrus sampling, vs control
  plasma LH concentrations: not different
[15]; by 3 hours post-treatment
  plasma melatonin concentrations vs control: not different
[15]; no change in controls
  plasma estradiol concentrations over 8-hour sampling at proestrus: decreased following treatment
[15]; sampled at diestrus, p=0.001 vs control
  mean plasma progesterone (P4) concentrations: significantly higher
[15]; sampled at estrus, p=0.006 vs control
  mean plasma estradiol concentrations: lower
[15]; sampled at proestrus or diestrus, vs control
  mean plasma estradiol concentrations: not different
[15]; sampled at proestrus or estrus, vs control
  mean plasma progesterone (P4) concentrations: not different
[15]; vs control, p=0.0001, RIA
  plasma melatonin concentrations after administration: higher
[16]
  production of progesterone: enhanced
